Experimental data: patent US9045423B2, “Prophylactic and/or therapeutic agent for anemia comprising tetrahydroquinoline compound as active ingredient” (KOWA COMPANY, LTD., priority 2009, dated 2015)

What was measured:
[1] = test system: HepG2 cells derived from human liver cancer; test: EPO production in HepG2 cells (EPO ELISA of culture supernatant); type: cell-based; settings: Homo sapiens; for activity at 3 µM: HepG2, 3 μM test compound, 48 hrs, 4% oxygen, non-stimulated state without compound = 100%, read-out: amount of EPO production, % of control (3 μM)
Method: HepG2 cells derived from human liver cancer were inoculated in an amount of 5×10^4 cells per well on a 48-well plate, using minimum essential medium (MEM, Sigma-Aldrich Company) containing 10% bovine fetal serum. On the next day, the medium was exchanged with Dulbecco's modified eagle medium (DMEM (Sigma-Aldrich Company)) containing 10% bovine fetal serum without Phenol Red. Then, a test compound dissolved in DMSO was added thereto to obtain a final concentration of 3 μM or 10 μM, and the amount of medium was adjusted to 400 μL per well. The cells were incubated for 48 hrs in a CO2 incubator in which the oxygen concentration was adjusted to 4%, and then the culture supernatant was collected. The EPO concentration in the culture supernatant was immediately measured using an EPO ELISA kit (Roche Diagnostics GmbH). The method was carried out according to the operation manual.
The amount of EPO production in a non-stimulated state where no compounds were added, was designated as 100%, and the amount of EPO production (% of control) induced by each of the compounds was determined.

[2] = test system: K562 cells, a human proerythroblast cell line; test: Hemoglobin production in K562 cells (fluorescence of the porphyrin ring); type: cell-based; settings: Homo sapiens, K562, 144 h; 6 μM test compound, 3 + 3 days incubation; non-stimulated state without compound = 100; read-out: amount of hemoglobin, % of control (6 μM)
Method: K562 cells (obtained from ATCC), which is a human proerythroblast cell line, were inoculated at a concentration of 1×10^5 cells/1 mL in each well of a 24-well plate, using complete medium (RPMI-1640 medium containing 10% bovine fetal serum), and 1 μL of a test compound at a 1000-fold concentration was added to each well. Subsequently, the cells were incubated for 3 days in a CO2 incubator (37° C., 5% CO2). The medium was exchanged, and the cells were further incubated for 3 days. The cells were collected and counted. Subsequently, the amount of hemoglobin produced in the cells was determined by adjusting the number of cells to 3×10^5 cells, and measuring the fluorescence of the porphyrin ring. That is, the cells collected by centrifugation were suspended in 500 μL of 2 M oxalic acid, and were heated to boil for 30 minutes. The cells were cooled, and then the fluorescence intensity was measured by using a fluorescence microplate reader (Spectra MAX GeminiEM; Molecular Devices Corp.) ([…]). The amount of hemoglobin in a non-stimulated state where no compound was added was designated as 100-, and the amount of hemoglobin (% of control) produced as induced by each of the compounds was determined.

SMILES	activity at 3 µM [1]	activity at 6 µM [2]	activity at 10 µM ([1]; HepG2, 48 h, final concentration 10 μM, non-stimulated state = 100%, read-out: enhancement of EPO production)
COC(=O)CCCc1ccc(NC(=O)c2ccc3c(c2)C(Nc2ccc(N4CCOCC4)cc2)CC(C)N3C(C)=O)cc1 (centres unmarked) [Compound 151, Methyl 4-(4-{1-Acetyl-2-methyl-4-[(4-morpholinophenyl)-amino]-1,2,3,4-tetrahydroquinoline-6-carboxamido}-phenyl)butanoate]	110%	341%	
CC(=O)N1c2ccc(C(N)=O)cc2C(Nc2ccc(-c3csc(C)n3)cc2)CC1C (centres unmarked) [Compound 164, 1-Acetyl-2-methyl-4-{[4-(2-methylthiazol-4-yl)-phenyl]amino}-1,2,3,4-tetrahydroquinoline-6-carboxamide]	336%	367%	
CC(=O)N1c2ccc(C(=O)NC3CCCCC3)cc2C(Nc2ccc(N3CCOCC3)cc2)CC1C (centres unmarked) [Compound 178, 1-Acetyl-N-cyclohexyl-2-methyl-4-[(4-morpholinophenyl)-amino]-1,2,3,4-tetrahydroquinoline-6-carboxamide]	370%	388%	
CC(=O)N1c2ccc(-c3n[nH]c(=O)o3)cc2C(Nc2ccc(N3CCOCC3)cc2)CC1C (centres unmarked) [Compound 134, 1-Acetyl-4-[(4-morpholinophenyl)-amino]-2-methyl-6-[1,3,4-oxadiazol-2(3H)-on-5-yl]-1,2,3,4-tetrahydroquinoline]	157%	298%	
CC(=O)N1c2ccc(N3CCOCC3)cc2C(Oc2ccc(Cl)cc2)CC1C (centres unmarked) [Compound 152, 1-Acetyl-4-(4-chloro-phenoxy)-2-methyl-6-morpholino-1,2,3,4-tetrahydroquinoline]	186%	337%	
CC(=O)N1c2ccc(C(=O)Nc3cccnc3)cc2C(Nc2ccc(Cl)cc2)CC1C (centres unmarked) [Compound 131, 1-Acetyl-4-[(4-chlorophenyl)-amino]-2-methyl-N-(3-pyridyl)-1,2,3,4-tetrahydroquinoline-6-carboxamide]	153%	263%	
CC(=O)N1c2ccc(N3CCN(S(C)(=O)=O)CC3)cc2C(Nc2ccc(N3CCOCC3)cc2)CC1C (centres unmarked) [Compound 160, 1-Acetyl-2-methyl-6-[4-(methylsulfonyl)piperazin-1-yl]-4-[(4-morpholino-phenyl)amino]-1,2,3,4-tetrahydroquinoline]	190%	259%	
CC(=O)N1c2ccc(C(N)=O)cc2C(Nc2ccc(C3CCCCC3)cc2)CC1C (centres unmarked) [Compound 147, 1-Acetyl-4-[(4-cyclohexylphenyl)-amino]-2-methyl-1,2,3,4-tetrahydroquinoline-6-carboxamide]		160%	130%
CC(=O)N1c2ccc(C(=O)NO)cc2C(Nc2ccc(Cl)cc2)CC1C (centres unmarked) [Compound 129, 1-Acetyl-4-[(4-chlorophenyl)-amino]-N-hydroxy-2-methyl-1,2,3,4-tetrahydroquinoline-6-carboxamide]	125%	136%	
CONC(=O)c1ccc2c(c1)C(Nc1ccc(N3CCOCC3)cc1)CC(C)N2C(C)=O (centres unmarked) [Compound 135, 1-Acetyl-4-[(4-morpholinophenyl)-amino]-N-methoxy-2-methyl-1,2,3,4-tetrahydroquinoline-6-carboxamide]	124%	178%	
